The source of these data is PMC9023544, “Ketone-selenoesters as potential anticancer and multidrug resistance modulation agents in 2D and 3D ovarian and breast cancer in vitro models” (Scientific Reports, 2022).

Test [1] relates to HOC. In words: Oxidation stress (ROS), Muse Oxidative Stress Kit. Format: cell-based, human. The settings on record: 1 µM (DMSO 5% V/V), 24 h. How it is done: Selenoesters (K3, K4, K7) were tested for their ability to generate reactive oxygen species (ROS). HOC was exposed to selenoesters in concentration of 1 µM for 24 h. DMSO (5% V/V) was used as a positive control. The required volume of DMSO (1% V/V) was added to untreated cells. ROS are essential biomolecules in cellular regulation as a part of the defence mechanisms. On the other hand, their participation in cell signalling may affect apoptosis and other death pathways. In the assay, dihydroethidium (DHE) reacts with superoxide anions by forming DNA-binding fluorophore ethidium bromide. Based on fluorescence, the cell population can be distinguished into ROS negative and ROS positive cells containing oxygen radicals.
To determine the oxidation stress potential of selected selenoesters, HOC were seeded into 24-well plates at a density 2 × 10^5 cells/mL for 24 h according to the above mentioned procedure. Afterwards, the plates were washed 1 ×with PBS and fresh DMEM medium containing compounds K3, K4, K7 (final concentration—1 µM) was added for 24 h, except for the positive and negative control. […] as the oxidation stress inductor. After incubation, the cells were washed 1× with PBS and released from the surface by using a trypsin–EDTA solution. After trypsin inhibition by medium addition, the cell suspensions were centrifuged (100×g, 5 min, 25 °C), supernatants were removed, and cell pellets resuspended in 1× assay buffer. All reagents were prepared immediately before use. Afterwards, 10 µL of the cell suspension were mixed with 190 µL of working solution (Muse Oxidative stress reagent) and stained for 30 min at 37 °C. Subsequently, the […] were analysed by Guava Muse Cell Analyzer. Oxidation stress detection was performed following the instructions provided by the manufacturer.

Test [2] concerns HOC/ADR. In words: Sensitization of MDR cell line to Adriamycin. Format: cell-based, human. The settings on record: for Fold change: IC50 of Adriamycin / IC50 of Adriamycin with IC10 dose of compound. The protocol:
To determine the sensitization potential of compounds, HOC/ADR and MCF-7/PAX were used. Based on the cytotoxic potential of the compounds against several cancer and non-cancerous cell lines (Table 1), the concentrations of applied compounds were adjusted. IC10 values was considered as the concentrations, which should not decrease the cell viability under 90%. After the addition of compounds, Adriamycin (concentration range 0.1–20 µM) and paclitaxel (concentration range 0.1–10 µM) were added to HOC/ADR and MCF-7/PAX, respectively. The sensitization potential of the compounds was determined as the ratio of the IC50 of cytostatic agent (Adriamycin/paclitaxel) to the IC50 of cytostatic agent affected by the compound in concentration corresponding to the IC10 value. Fold change greater than 1 indicated synergic effect of cytostatic agent and the tested compound.
After that, the plates were washed 1× with PBS and fresh DMEM medium supplemented with tested compounds at final concentration corresponding their IC10 value was added, except for positive control wells. Subsequently, Adriamycin (concentration range 0.1–20 µM) or paclitaxel (concentration range 0.1–10 µM) was added to the appropriate cell line for 72 h. After incubation, the cells were washed 1× with PBS and the resazurin solution (0.03 mg/mL) was added to evaluate the cell viability as described above. IC50 values of cytostatics were calculated for both the control and compounds; a fold change was counted up. When this fold change is higher than 1 indicates a synergism between the tested cytostatic agent and the compound, while a fold change lower than 1 means an antagonism. Fold change=IC50value of cytostatic treated cells only/IC50value of cytostatic treated cells in addition of the compound

Test [3] concerns HOC/ADR (sub-line resistant to Adriamycin, A2780/ADR). The test is described as follows: Cytotoxic activity, 2D, resazurin, 72 h. Type of test: cell-based, human. The settings on record: for IC10 / IC50: Homo sapiens, A2780 ADR, 72 h; for IC10: HOC/ADR, concentration that should not decrease viability under 90%, read-out: IC10 of compounds; for IC50: 2D, mean ± SEM, n=3, read-out: HOC/ADR IC50; for SI HEK293/HOC/ADR: IC50 HEK293 / IC50 HOC/ADR; for CS (collateral sensitivity index): IC50 HOC / IC50 HOC/ADR. The protocol: (§1) The cytotoxic potential of selenoesters was tested on several cancer cell lines—HOC (human parental ovarian adenocarcinoma, HOC, A2780, Sigma-Aldrich), HOC/ADR (sub-line resistant to Adriamycin, A2780/ADR, Sigma-Aldrich), MCF-7 (human breast adenocarcinoma, ATCC®, HTB-22TM), MCF-7/PAX (resistant sub-line established by gradual adaptation of parental cells to increased concentration of paclitaxel; kindly provided by Division of Cell and Molecular Biology, Third Faculty of Medicine, Charles University, Czech Republic) and on one non-cancerous cell line—HEK293 (human embryonic kidney cell line, Leibniz Institute, DSMZ-German Collection of Microorganisms and Cell Cultures GmbH). All mentioned cell lines were authenticated using short tandem repeat (STR) profiling. Cell lines were cultivated in DMEM medium (10% FBS, 1× antibiotic antimycotic solution), except for HEK293 cell line which was cultivated without antibiotics. In case of the resistant cell lines, the medium was supplemented with a required concentration of cytostatics to maintain resistance (HOC/ADR—100 nM Adriamycin; MCF-7/PAX—300 nM paclitaxel). All cells were cultivated in a CO2 incubator (5% CO2, 37 °C, Thermo Fisher Scientific).
(§2) For the experiment, the cells at passage number 5–20 were seeded at a 1 × 10^5 cells/mL concentration into 96-well plates to 100 µL final volume. The final concentration range of the compounds was 0.63–20 µM. After an incubation of 72 h, the plates were washed 1× with PBS and resazurin solution (0.03 mg/mL in 1× PBS) was added. After 1 h of incubation, the fluorescence signal was recorded (ex./em. 560/590 nm).
(§3) The selectivity index (SI) was determined as the ratio of IC50 value for the non-cancerous cells to IC50 for the cancer cell line. For resistant cell lines, the collateral sensitivity (CS) was calculated as the ratio of IC50 value in sensitive tumour cells to IC50 in the resistant cancer cell line. In both cases, the selectivity is considered as: (1) strongly selective when SI or CS value is above 6, (2) moderately selective when SI or CS is between 3 and 6, (3) slightly selective when SI or CS is between 1 and 3 and (4) non-selective when SI or CS is less than 1[23].
(In general: Alamar Blue is a resazurin reagent that responds to reducing activity.)

Test [4] deals with MCF-7/PAX (paclitaxel-resistant sub-line). In words: Cytotoxic activity, 2D, resazurin, 72 h. Format: cell-based, human. The settings on record: for IC50: Homo sapiens, MCF7, 2D, 72 h, mean ± SEM, n=3, read-out: MCF-7/PAX IC50; for SI HEK293/MC7-7/PAX: IC50 HEK293 / IC50 MCF-7/PAX; for CS (collateral sensitivity index): IC50 MCF-7 / IC50 MCF-7/PAX. How it is done: as §1, §2, §3

The test system of test [5] is HOC (human parental ovarian adenocarcinoma, A2780). The test is described as follows: Cytotoxic activity, 2D, resazurin, 72 h. The conditions noted are these: for IC50: Homo sapiens, A2780, 72 h, 2D, 72 h, mean ± SEM, n=3, read-out: HOC IC50; for SI HEK293/HOC: IC50 HEK293 / IC50 HOC. Format: cell-based. How it is done:
as §1, §2, §3

Test [6] deals with MCF-7 (human breast adenocarcinoma). In words: Cytotoxic activity, 2D, resazurin, 72 h. Format: cell-based. The conditions noted are these: for IC50: Homo sapiens, MCF7, 2D, 72 h, mean ± SEM, n=3, read-out: MCF-7 IC50; for SI HEK293/MCF-7: IC50 HEK293 / IC50 MCF-7. How it is done: as §1, §2, §3
Test [7] has as its system HEK293 (human embryonic kidney cell line). In words: Cytotoxic activity, non-cancerous cell line, resazurin, 72 h. Format: cell-based. The conditions noted are these: Homo sapiens, HEK293; 72 h, mean ± SEM, n=3. The protocol: as §1, §2, §3
Test [8] deals with prostate metastatic cancer line. Set-up: method as in PMID 21549092. The settings on record: cited from earlier work.

One may read the IC10 as the concentration needed for an effect of 10%.

Each structure is given as a SMILES string.

In the case of `C[S+](C)[O-]` [DMSO (5% V/V), dimethyl sulfoxide, reference compound], in test [1], the “ROS(+) cells” value was 68.7 ± 1.9 % and the “ROS(−) cells” value was found to be 31.8 ± 2.3 %.
On to `N#CC[Se]C(=O)c1ccccc1C(F)(F)F` [N4], for which, in test [2], the Fold change result is listed as “(1.3 ± 0.1)×”. In test [3], the IC10 turned out to be 2400 nM, the IC50 is 3700 ± 200 nM, the “SI HEK293/HOC/ADR” value was 1.4 ± 0.1 and the “CS (collateral sensitivity index)” value was 0.6 ± 0.1. In test [4], the IC50 is 2400 ± 200 nM, the “SI HEK293/MC7-7/PAX” value is 2.1 ± 0.2 and the “CS (collateral sensitivity index)” value was determined as 0.9 ± 0.1. For the same molecule, in test [5], the IC50 came to 2400 ± 100 nM and the “SI HEK293/HOC” value stood at 2.2 ± 0.2. Moreover, in test [6], the IC50 amounted to 2100 ± 100 nM and the “SI HEK293/MCF-7” value was 2.5 ± 0.2. In addition, in test [7], the IC50 turned out to be 5200 ± 300 nM.
For the molecule `N#CC[Se]C(=O)c1cccc(C(F)(F)F)c1` [N5], the Fold change result in test [2] was “(1.2 ± 0.2)×”. Moreover, in test [3], the IC10 is 2500 nM, the IC50 stood at 4500 ± 200 nM, the “SI HEK293/HOC/ADR” value was 1.3 ± 0.1 and the “CS (collateral sensitivity index)” value is reported as 0.5 ± 0.1. In test [4], the IC50 was determined as 2700 ± 200 nM, the “SI HEK293/MC7-7/PAX” value is reported as 2.3 ± 0.2 and the “CS (collateral sensitivity index)” value turned out to be 0.9 ± 0.2. In test [5], the IC50 worked out at 2300 ± 100 nM and the “SI HEK293/HOC” value is 2.7 ± 0.2. Also, in test [6], the IC50 came out at 2500 ± 200 nM and the “SI HEK293/MCF-7” value is on record as 2.4 ± 0.3. Besides, the IC50 in test [7] came out at 6000 ± 200 nM.
In the case of `N#CC[Se]C(=O)c1ccc(F)c(Cl)c1` [N6], the “increase of the IC50 of Adriamycin” value in test [2] (IC10 dose of compound) is “almost threefold”. The Fold change entry in test [2] is on record as “(0.4 ± 0.0)×”. Besides, in test [3], the IC10 is 2600 nM, the IC50 amounted to 3600 nM, the “SI HEK293/HOC/ADR” value was 1.4 ± 0.0 and the “CS (collateral sensitivity index)” value is recorded as 0.7 ± 0.1. Besides, in test [4], the IC50 was 1900 ± 100 nM, the “SI HEK293/MC7-7/PAX” value is listed as 2.6 ± 0.1 and the “CS (collateral sensitivity index)” value came out at 0.9 ± 0.0. Besides, in test [5], the IC50 is 2400 ± 200 nM and the “SI HEK293/HOC” value is reported as 2.1 ± 0.2. For the same molecule, in test [6], the IC50 turned out to be 1700 nM and the “SI HEK293/MCF-7” value is 2.9 ± 0.1. The same molecule yielded an IC50 in test [7] of 4900 ± 100 nM.
For the molecule `N#CC[Se]C(=O)c1cc(C(F)(F)F)cc(C(F)(F)F)c1` [N7], the Fold change entry in test [2] was “(1.1 ± 0.1)×”. Moreover, in test [3], the IC10 was determined as 3100 nM, the IC50 is 5700 ± 200 nM and the “SI HEK293/HOC/ADR” value worked out at 1.2 ± 0.1. Further, in test [4], the IC50 was determined as 2700 ± 300 nM, the “SI HEK293/MC7-7/PAX” value amounted to 2.5 ± 0.4 and the “CS (collateral sensitivity index)” value stood at 0.8 ± 0.1. For the same molecule, in test [5], the IC50 stood at 2900 ± 100 nM and the “SI HEK293/HOC” value amounted to 2.3 ± 0.3. For the same molecule, in test [6], the IC50 came to 2200 ± 100 nM and the “SI HEK293/MCF-7” value is reported as 3.0 ± 0.5. Besides, in test [6] (sensitive MCF-7), the “selectivity versus HEK293 (in words)” value is given as “moderate selectivity”. Also, the IC50 in test [7] is 6600 ± 600 nM.
For the molecule `CC(=O)O[C@@]12CO[C@@H]1C[C@H](O)[C@@]1(C)C(=O)[C@H](O)C3=C(C)[C@@H](OC(=O)[C@H](O)[C@@H](NC(=O)OC(C)(C)C)c4ccccc4)C[C@@](O)([C@@H](OC(=O)c4ccccc4)[C@H]21)C3(C)C` [docetaxel], the growth inhibition in test [8] is given as 22%.
As for `O=[Se]([O-])[O-].[Na+].[Na+]` [sodium selenite], in test [8], the growth inhibition was 24%.
